Results as given in paper PMC9133015 (Nature Communications, 2022).
Where “and” joins values, the source holds several entries; their conditions need not be identical. Identical values can stand only once. Like-named read-outs stand apart in the source and are kept apart here.

What was measured:
Pharmacokinetic profiles = assay type: in vivo; conditions: rat, SD rats; for MRT inf: read-out: MRT0-∞
DYRK3 = molecular target: T1, DYRK3 (Homo sapiens, UniProt O43781); assay: DYRKs kinase activity assay (33P-ATP, DYRKtide substrate): DYRK3; assay type: biochemical
T1 construct: purchased Reaction Biology Corporation (assay service)
T1 sequence (O43781 1-588): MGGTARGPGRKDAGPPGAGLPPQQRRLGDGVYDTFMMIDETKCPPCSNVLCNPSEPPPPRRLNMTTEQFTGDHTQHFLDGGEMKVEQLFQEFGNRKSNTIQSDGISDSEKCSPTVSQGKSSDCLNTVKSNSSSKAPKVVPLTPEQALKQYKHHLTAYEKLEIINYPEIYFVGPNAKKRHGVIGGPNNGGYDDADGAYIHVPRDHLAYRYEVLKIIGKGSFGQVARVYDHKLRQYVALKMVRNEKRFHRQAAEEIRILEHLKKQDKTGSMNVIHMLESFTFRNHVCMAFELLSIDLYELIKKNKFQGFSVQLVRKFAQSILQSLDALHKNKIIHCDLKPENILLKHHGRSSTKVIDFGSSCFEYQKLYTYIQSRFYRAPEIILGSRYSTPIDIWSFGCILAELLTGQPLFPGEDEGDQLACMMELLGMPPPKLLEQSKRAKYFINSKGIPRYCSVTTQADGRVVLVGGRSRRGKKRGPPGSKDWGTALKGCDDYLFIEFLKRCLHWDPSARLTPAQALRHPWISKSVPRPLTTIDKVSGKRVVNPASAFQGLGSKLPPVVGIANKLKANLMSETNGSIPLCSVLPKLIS

[1] = SD, serum, po, 10 mg/kg, PO 10 mg/kg, read-out: Con. Mean
[2] = SD, serum, po, 10 mg/kg, PO 10 mg/kg, read-out: Con. (individual rats NO.1-3)
[3] = Sprague-Dawley, serum, iv, 1 mg/kg, IV 1 mg/kg, read-out: Con. (individual rats NO.1-3)
[4] = Sprague-Dawley, serum, iv, 1 mg/kg, IV 1 mg/kg, read-out: Con. Mean

Structure (SMILES): CCN1CCN(C(=O)c2ccc(Nc3ncc(F)c(-c4ccc5nc(N(C)C)sc5c4)n3)nc2)CC1 [YK-2-69]
- concentration at 0.5 h (Pharmacokinetic profiles; [1]): 220 ng/mL
- concentration at 1 h (Pharmacokinetic profiles; [2]): 386 ng/mL
- concentration at 1 h (Pharmacokinetic profiles; [1]): 400 ng/mL
- concentration at 2 h (Pharmacokinetic profiles; [2]): 600 ng/mL
- concentration at 2 h (Pharmacokinetic profiles; [1]): 629 ng/mL
- concentration at 4 h (Pharmacokinetic profiles; [2]): 684 ng/mL
- concentration at 4 h (Pharmacokinetic profiles; [1]): 663 ng/mL
- concentration at 6 h (Pharmacokinetic profiles; [2]): 685 ng/mL
- concentration at 6 h (Pharmacokinetic profiles; [1]): 589 ng/mL
- concentration at 8 h (Pharmacokinetic profiles; [2]): 507 ng/mL
- concentration at 8 h (Pharmacokinetic profiles; [1]): 483 ng/mL
- concentration at 12 h (Pharmacokinetic profiles; [2]): 309 ng/mL
- concentration at 12 h (Pharmacokinetic profiles; [1]): 269 ng/mL
- concentration at 24 h (Pharmacokinetic profiles; [2]): 67.9 ng/mL
- concentration at 24 h (Pharmacokinetic profiles; [1]): 57.4 ng/mL
- concentration at 0.033 h (Pharmacokinetic profiles; Sprague-Dawley, serum, iv, 1 mg/kg, IV 1 mg/kg, 0.033 h, read-out: Con. Mean): 974 ng/mL
- concentration at 0.083 h (Pharmacokinetic profiles; [3]): 811 ng/mL
- concentration at 0.083 h (Pharmacokinetic profiles; [4]): 781 ng/mL
- concentration at 0.25 h (Pharmacokinetic profiles; [3]): 560 ng/mL
- concentration at 0.25 h (Pharmacokinetic profiles; [4]): 524 ng/mL
- concentration at 0.5 h (Pharmacokinetic profiles; [3]): 399 ng/mL
- concentration at 0.5 h (Pharmacokinetic profiles; [4]): 421 ng/mL
- concentration at 1 h (Pharmacokinetic profiles; [3]): 265 ng/mL
- concentration at 1 h (Pharmacokinetic profiles; [4]): 310 ng/mL
- concentration at 12 h (Pharmacokinetic profiles; in vivo, IV 1 mg/kg, read-out: Con. (individual rats NO.1-3)): 19.8 ng/mL
- AUC(0-inf) (Pharmacokinetic profiles; serum, IV 1 mg/kg): 1500 ng·h/mL
- Cmax (Pharmacokinetic profiles; serum, IV 1 mg/kg): 974 ng/mL
- Tmax (Pharmacokinetic profiles; serum, IV 1 mg/kg): 0.0333 h
- clearance (Pharmacokinetic profiles; serum, IV 1 mg/kg): 11.2 mL/min/kg
- half-life (Pharmacokinetic profiles; serum, IV 1 mg/kg): 3 h
- MRT inf (Pharmacokinetic profiles; serum, IV 1 mg/kg): 3.5 h
- AUC(0-inf) (Pharmacokinetic profiles; serum, PO 10 mg/kg): 8380 ng·h/mL
- Cmax (Pharmacokinetic profiles; serum, PO 10 mg/kg): 674 ng/mL
- Tmax (Pharmacokinetic profiles; serum, PO 10 mg/kg): 4 h
- half-life (Pharmacokinetic profiles; serum, PO 10 mg/kg): 5 h
- bioavailability (Pharmacokinetic profiles; serum, PO 10 mg/kg vs IV 1 mg/kg, read-out: F (oral bioavailability)): 56%
- MRT inf (Pharmacokinetic profiles; serum, PO 10 mg/kg): 8.9 h
- IC50 (DYRK3): > 1000 nM
- % Inhibition DYRK3 (DYRK3; 0.000762079 µM, duplicates): -8.00% and -1.03%
- % Inhibition DYRK3 (DYRK3; 0.00228624 µM, duplicates): -10.03% and -2.95%
- % Inhibition DYRK3 (DYRK3; 0.00685871 µM, duplicates): -8.21% and -7.66%
- % Inhibition DYRK3 (DYRK3; 0.0205761 µM, duplicates): -2.65% and -5.02%
- % Inhibition DYRK3 (DYRK3; 0.0617284 µM, duplicates): 11.61%
- inhibition at 0.0617284 µM (DYRK3; 0.0617284 µM, duplicates): 6.58%
- % Inhibition DYRK3 (DYRK3; 0.185185 µM, duplicates): 29.90%
- inhibition at 0.185185 µM (DYRK3; 0.185185 µM, duplicates): 28.2%
- % Inhibition DYRK3 (DYRK3; 0.555556 µM, duplicates): 51.81%
- inhibition at 0.555556 µM (DYRK3; 0.555556 µM, duplicates): 49.4%
- % Inhibition DYRK3 (DYRK3; 1.66667 µM, duplicates): 53.48%
- % Inhibition DYRK3 (DYRK3; 5 µM, duplicates): 56.27%
- inhibition at 5 µM (DYRK3; 5 µM, duplicates): 56.1%
- inhibition at 1.66667 µM (DYRK3; read-out: % Inhibition DYRK3, 1.66667 µM, duplicates): 50.8%
- selectivity over DYRK3 (DYRK3; vs DYRK2): more than 100 fold
